The values below come from a melting point compilation (Tetko et al.; mined from patent text by program, amines drawn as free bases though some values may be those of a salt).

Structures are written as SMILES.

As to `CCC(C)(C)c1cc(-c2ccc(C=C3SC(=O)NC3=O)cn2)cc2nc(C)oc12`, the melting point (in general, the temperature of the solid-liquid transition) is 312 °C.

Compound `O=C1NCCN(Cc2ccc(OCc3ccccc3)cc2)C1c1ccccc1` (stereo not drawn) showed a melting point of 207 to 211 °C.

Consider `COc1ccc(-c2cncc(OC3SCC(OC(C)=O)C(OC(C)=O)C3OC(C)=O)c2)c(Cl)c1` (stereo not drawn), for which the melting point worked out at 126 °C.

`O=c1ccc2ccc3ccc(Br)cc3c(=O)c2[nH]1` displayed a melting point of 268 to 269 °C.

Compound `CC(C)CCSC1=C(O)CC(C)(C)CC1=O` came in with a melting point of 59 to 61 °C.

`CC(C)(C)c1cc(Nc2ccccc2C=O)cc(C(C)(C)C)c1O` showed a melting point of 105 to 107 °C.

Compound `COC(=O)Nc1ccc(OC(=O)OC)cc1I` showed a melting point of 106 °C.

For the compound `CCCCc1nc[nH]c(=O)c1Cc1ccc(-c2ccccc2C(=O)O)cc1`, the melting point was 197 to 200 °C.

For the compound `COc1cc(C(=O)N2CCC(CCN3CCC(C(=O)c4nc5ccccc5n4Cc4ccc(C(=O)O)cc4)CC3)(c3ccccc3)C2)cc(OC)c1OC` (stereo not drawn), the melting point lay in the range of 173 to 190 °C.

In turn, `C=CC[C@H](NS(=O)(=O)c1ccc(OC)cc1)C(=O)OC(C)(C)C` had a melting point of 58 to 59 °C.

For the compound `Cc1ccc2cccc(OCc3c(Cl)ccc(N(C)C(=O)CN4C(=O)c5ccccc5C4=O)c3Cl)c2n1`, the melting point stood at 204 °C.

Compound `COc1ccc2cc(C(=O)NCc3cc([N+](=O)[O-])cc([N+](=O)[O-])c3)c(=O)oc2c1` yielded a melting point of 233 °C.

The compound `O=S(=O)(Nc1ccc2c(OCc3ccc(Cl)cc3Cl)cccc2c1)C(F)(F)F` gave a melting point of 142 to 144 °C.

`CC(=O)NC[C@H]1CN(c2ccc(C3CCOCC3)cc2)C(=O)O1` showed a melting point of 185 to 187 °C.

Compound `CCOC(=O)C(Cc1ccc(CN(CC)CC)cc1)NC(=O)OC(C)(C)C` (stereo not drawn) showed a melting point of 56 °C.

Turning to `COC(=O)COC(=O)c1ccc(OCC(=O)OC)cc1`, the melting point lay in the range of 53 to 57 °C.

The compound `COCCNc1c(S(=O)(=O)C(F)(F)F)c(C#N)nn1-c1c(Cl)cc(C(F)(F)F)cc1Cl` returned a melting point of 164 °C.

With `O=C(O)CCCc1cc2nc(Cl)ccc2n1S(=O)(=O)c1cc(C(F)(F)F)cc(C(F)(F)F)c1`, the melting point fell in the range of 155 to 164 °C.

As to `Cc1c(NC(=O)c2ccc(OC[C@@H]3CCCO3)cc2)ccc2cc(CNCC3CCOCC3)[nH]c12`, the melting point fell in the range of 161 to 162 °C.

Compound `Cc1csc2nc(S(=O)(=O)Nc3ccccc3Cl)nn12` showed a melting point of 172 to 174 °C.

Consider `CCSc1nsc(NC(=O)NC)c1C(N)=O`, for which the melting point stood at 205 °C.

As for `O=C(O)c1ccc(CCCc2c(CCNS(=O)(=O)Cc3ccc(Cl)c(Cl)c3)n(C(c3ccccc3)c3ccccc3)c3ccc(Cl)cc23)cc1`, the melting point came to 190 °C.

Compound `O=c1[nH]ncc2cc(/C=C\c3ccc(O)cc3)ccc12` displayed a melting point of 210 °C.

Compound `CSc1ccc(-n2c(-c3ccc(C)cc3)nc(SC)c(C#N)c2=O)cc1` returned a melting point of 230 to 233 °C.

`CCCCCCCCCCCCSC(=S)SC(C)(C#N)CCC(=O)O` (stereo not drawn) registered a melting point of 58 to 59 °C.

Consider `CN1C(=O)CC[C@]2(C)c3ccc(-c4cccc(F)c4F)cc3CC[C@@H]12`, for which the melting point was 147 to 148 °C.

As to `CC(C)n1c(/C=C/COc2ccc(C(=O)C(=O)O)cc2)c(-c2ccc(F)cc2)c2ccccc21`, the melting point is 151 to 152 °C.

Take `CN1CCN(c2nc(NCc3ccco3)nc(Nc3ccc(O)cc3)n2)CC1`: the melting point lay within 116 to 118 °C.

Consider `CC12CCC(C(=O)O)=CC1=CCC1C2CCC2(C)C(C(=O)CCCc3ccccc3)CCC12` (stereo not drawn), for which the melting point was in the range of 208 to 210 °C.

In the case of `COCc1cc2c(Nc3cccc(Cl)c3)ncnc2[nH]1`, the melting point is 226 to 230 °C.

`COC(=O)c1ccc(CC(C)NCC(O)c2ccc(O)c(CO)c2)cc1C(=O)OC` (stereo not drawn) returned a melting point of 124 to 129 °C.

For the compound `O=C(O)C1CC=C(c2c(-c3ccccc3)[nH]c3ccccc23)CC1` (stereo not drawn), the melting point lay within 178 to 179 °C.

The compound `CC(C)(C)c1cc(NC(=O)Nc2ccccc2C(=O)NC2CCN(C(c3ccccc3)c3ccccc3)CC2)cc(C(C)(C)C)c1O` gave a melting point of 218 to 225 °C.

`CC(C)(C)c1cc(CCc2cc(F)ccc2NC(=O)NC2CCN(Cc3ccccc3)CC2)cc(C(C)(C)C)c1O` registered a melting point of 108 to 109 °C.

Turning to `NCCCn1ccc2cc(NC(=O)c3nc4ccc(Cl)cc4n3Cc3ccccc3)ccc21`, the melting point lay within 106 to 108 °C.

Consider `Cc1cc(-c2nc3cccnn3c2-c2ccnc(N)c2)ccc1F`, for which the melting point was 179 to 180 °C.

`CN1CCC(C2(O)c3ccccc3CCn3cc(-c4ccccc4)nc32)CC1` (stereo not drawn) displayed a melting point of 225 °C.

With `COC(=O)c1cc(OC)ccc1Oc1cc(Cl)ccc1[N+](=O)[O-]`, the melting point lay within 114 to 116 °C.

The compound `C(=Cc1ccccc1)C=Nc1ccc(Cc2ccc(N=CC=Cc3ccccc3)cc2)cc1` came in with a melting point of 162 to 164 °C.

`CC(C)(C)C(=O)Nc1c(F)cc(F)cc1Oc1ccc(C(C)(C)C(=O)O)cc1` registered a melting point of 168 to 170 °C.

`COc1ccc(-c2ccc3nn(-c4cc(C(C)(C)CC(C)(C)C)cc(C(C)(C)c5ccccc5)c4O)nc3c2)cc1` had a melting point of 129 to 131 °C.

The compound `Cc1ccc(C(=O)COc2ccc(Br)cc2CO)cc1` displayed a melting point of 125 to 127 °C.

The compound `COc1ccc(N=Cc2cc(OC)c(OC)c(OC)c2)cc1` had a melting point of 78 to 86 °C.

In turn, `COCC1OC(n2cnc3c(NC4CCCC4)nc(Cl)nc32)C(O)C1O` (stereo not drawn) came in with a melting point of 124 to 126 °C.

Compound `CNC(=O)[C@H](NC(=O)c1ccc(F)cc1C(F)(F)F)[C@@H](CNC(C)=O)c1ccccc1` (racemic) gave a melting point of 199 °C.

For `COC(=O)c1ccc(CCN(C)c2cn([C@H]3CCc4c(F)cc(F)cc4C3)c(=S)[nH]2)cc1`, the melting point is 159 to 160 °C.

In turn, `COC(=O)C(C)(C)Cc1ccc(CC(C)(C)C(=O)OC)cc1` returned a melting point of 74 to 76 °C.

Regarding `COc1ccccc1N1CCN(C(=O)[C@H](N)CC2CCCCC2)CC1`, the melting point lay within 165 to 168 °C.

Consider `CCOC(=O)Cc1csc(NC(=O)NC)n1`, for which the melting point fell in the range of 158 to 159 °C.

The compound `CCCCCCCCOc1cc2c(cc1/C(C)=C/c1ccc(C(=O)OC)cc1)C(C)(C)CCCS2(=O)=O` returned a melting point of 79 to 80 °C.

In turn, `COc1ccc(-c2[nH]c(-c3ccc([N+](=O)[O-])c(C)c3)nc2C(=O)O)cc1` returned a melting point of 229 to 230 °C.

`CCSC1(c2cc(F)cc(OCc3ccc4c(ccc(=O)n4C)c3)c2)CCOCC1` came in with a melting point of 68 to 72 °C.

The compound `CCc1cnc(-n2cc(CCCOc3c(CC(=O)O)cccc3OC)c(C(C)C)n2)nc1` displayed a melting point of 103 to 104 °C.

`Cc1cccc2c1N(CC(=O)N1CC3CCC(CC3)C1)C(=O)C(NC(=O)Nc1cccc(Cc3nnn[nH]3)c1)N=C2c1ccccc1F` (stereo not drawn) showed a melting point of 154 to 168 °C.

For `COC(=O)c1ccccc1S(=O)(=O)NC(=O)n1nc(OCC(F)(F)F)n(C)c1=O`, the melting point amounted to 153 °C.

For `CC(O)Cc1cc(N)cc([N+](=O)[O-])c1N` (stereo not drawn), the melting point turned out to be 115 °C.

On to `Cc1cc(C)cc(C(=O)c2c(C(C)C)c(=O)[nH]c(=O)n2Cc2cc(C)nc(N3C(=O)c4ccccc4C3=O)c2)c1`, for which the melting point lay in the range of 310 to 311 °C.

As for `COC1(c2cccc(OCc3ccc(-n4ccnc4C)cc3F)c2)CCOCC1`, the melting point was 121 to 122 °C.

With `CN1CCN(c2nn(C(=O)c3ccccc3)c3ccccc23)CC1`, the melting point lay in the range of 104 to 106 °C.

The compound `O=C1C(=O)N(C(c2ccccc2)c2ccccc2)c2c(Cl)cccc21` showed a melting point of 172 to 173 °C.

The compound `CC(C)OC(=O)C(C(=O)Nc1ccccc1)=C1SCS1` returned a melting point of 115 to 116 °C.

`CCCCc1cn(CC(C)C)c(=O)n1Cc1ccc(-c2ccccc2-c2nnn[nH]2)nc1`: the melting point fell in the range of 160 to 162 °C.

`C#CCOc1cc(-c2ccccc2)ncn1` displayed a melting point of 65.1 °C.

The compound `CCN(C(C)=O)c1cccc(-c2ccnc3c(C(=O)c4ccccc4)cnn23)c1` returned a melting point of 158 to 160 °C.

The compound `COc1ccc2cc(CN(C)C(=O)c3ccc(Oc4cc(Cl)cc(Cl)c4)o3)ccc2c1Br` returned a melting point of 115 to 117 °C.

The compound `CCOC(=O)c1cnn(C)c1C(=O)Nc1ccn2nc(-c3cccc(F)c3)nc2c1` had a melting point of 246 to 249 °C.

In turn, `COC(=O)c1nc(C)n2c1CNC(c1ccccc1)c1cc(Cl)ccc1-2` (stereo not drawn) registered a melting point of 233 to 235 °C.

The compound `Cc1noc(NS(=O)(=O)c2cccc3c(NC(=O)C(C)C)cccc23)c1C` returned a melting point of 177 to 180 °C.

`CC(C)(O)C(=O)N[C@H]1CC[C@H](CCN2CCN(c3nccc4c3CCO4)CC2)CC1` came in with a melting point of 201 °C.

Compound `CCCCn1c(COCC)nc2c(N)nc3ccc(-c4cccnc4)cc3c21` gave a melting point of 220 to 222 °C.

In the case of `COc1ccc(Sc2oc3ccc(Cl)cc3c2C)nn1`, the melting point was in the range of 131 to 134 °C.

As for `Cc1ccc(-n2nc(C(C)(C)C)cc2NC(=O)c2cccc3cc(Oc4cc(Cl)ncn4)ccc23)cc1`, the melting point is 163 to 164 °C.

`O=C(OCCN1CCNC1=O)c1ccccc1` gave a melting point of 130 to 132 °C.

In turn, `CC1(C)Oc2cnccc2C2OC21` (stereo not drawn) had a melting point of 110 to 112 °C.

In the case of `NC(=NCC(F)(F)F)Nc1cnn(-c2cccc(C(=O)NCCO)c2)n1`, the melting point lay within 171 to 173 °C.

Compound `CNC(=O)C(=O)CCCCCCSc1ccc2ccccc2c1` had a melting point of 94 to 95 °C.

For the compound `CCOC(=O)CC(NC(=O)c1cc(N)ccc1OCCOC)c1ccccc1` (racemic), the melting point lay within 105 to 106 °C.

Regarding `Fc1ccc(N2CCN(Cc3n[nH]c4ccccc34)CC2)cc1`, the melting point lay in the range of 191 to 192 °C.

Compound `COc1ccc(CONS(=O)(=O)c2ccc(C)cc2)cc1` yielded a melting point of 109 to 111 °C.

For the compound `CCCCNC(=O)NS(=O)(=O)C(C)=Cc1ccccc1`, the melting point lay within 135 to 136 °C.

For the compound `COC(=O)CCCc1cc2nc(Cl)ccc2n1S(=O)(=O)c1cccc2nsnc12`, the melting point came out at 112 °C.

In the case of `COc1ccc(-c2ocnc2-c2cc(OC)c(F)c(OC)c2)cc1N`, the melting point was 140 to 142 °C.

Turning to `CC(C)(C)OC(=O)NCC1=CC(c2ccccc2)Cc2c1ccc(OC(=O)C(C)(C)C)c2OC(=O)C(C)(C)C` (stereo not drawn), the melting point fell in the range of 64 to 69 °C.
